Measurements from publication PMC3111596 (Biochemistry, 2011).

Target: N-terminal truncated LSD1 (171–852 aa) (Homo sapiens, UniProt O60341)
Assay: LSD1-folate binding by back-scattering interferometry
Conditions: N-terminal truncated LSD1 vs full-size LSD1

Affinity of truncated LSD1 compared with full-size protein: same affinity as the full-size protein
Compound: Nc1nc2c(c(=O)[nH]1)NC(CNc1ccc(C(=O)N[C@@H](CCC(=O)N[C@@H](CCC(=O)N[C@@H](CCC(=O)N[C@@H](CCC(=O)N[C@@H](CCC(=O)O)C(=O)O)C(=O)O)C(=O)O)C(=O)O)C(=O)O)cc1)CN2 (mixture of isomers) [(6R,S)-THF-Glu5, Tetrahydrofolate pentaglutamate]
